Patent US20240189263A1, “DERIVATIZED C60 MOLECULES AND METHODS AND MATERIALS FOR USING DERIVATIZED C60 MOLECULES TO REDUCE RADIATION INJURY” (Mayo Foundation for Medical Education and Research, priority 2021, published 2024)

Tested on: HUVEC cells
Assay: DNA damage, γH2AX foci immunofluorescence, HUVEC
Type: cell-based
Experimental: To test the ability of C60-ser to protect against radiation injury, the level of DNA damage in response to radiation was analyzed by measuring γH2AX. The H2AX protein becomes phosphorylated into γH2AX as a result of DNA double strand breaks. This allows for the visualization and quantification of double strand break foci through immunofluorescence analysis. Cells were plated on 8 chamber slides and incubated overnight before C60-ser treatment. Three sets of slides per cell line (to be irradiated with 0, 0.5, and 1 Gy) were prepared, with the top 4 rows used as a control and the bottom 4 rows incubated with 100 μM C60-ser. Cells were incubated with C60-ser for 2 hours before irradiation with a clinical Proteus One proton machine (Ion Beam Applications, Louvain-la-Neuve, Belgium). A 230 MeV mono-energetic unmodulated broad beam of large field size that encompassed all slides containing the cells was used to deliver the 0.5 and 1 Gy doses. White solid water slabs (IBA Dosimetry, Germany) provided the necessary phantom material to place the cells at the desired 8 cm depth with an LET of approximately 1.7 keV/μm. After irradiation, cells were incubated at 37° C. with 5% CO2 for 30 minutes before washing and fixing the cells with 1% formaldehyde. The cells were permeabilized with 1% NP-40 and incubated with 5% BSA to block unspecific antibody bonding. The cells were then incubated with γH2AX primary antibody followed by a secondary antibody. Mounting media containing DAPI was used before applying cover slips and sealing the samples. Cells were imaged on an Olympus IX71 trinocular inverted fluorescence phase contrast microscope with a 40× objective. The resulting images were analyzed by ImageJ, and the foci were counted.

For `O=C(NC(CO)CO)C1(C(=O)NC(CO)CO)C23c4c5c6c7c8c4-c4c2c2c9c%10c4C4%11c%12c-%10c%10c%13c%14c%12-c%12c(c-7c7c%15c%12C%14%12C(C(=O)NC(CO)CO)(C(=O)NC(CO)CO)C%12%14c%12c%16c%17c%18c(c%12-%15)C7%12C(C(=O)NC(CO)CO)(C(=O)NC(CO)CO)C6%12c6c-5c5c7c(c6-%18)C%176C(C(=O)NC(CO)CO)(C(=O)NC(CO)CO)C6%12c6c-7c(c-2c2c6-c6c%12c-%16c%14c-%13c6C%106C(C(=O)NC(CO)CO)(C(=O)NC(CO)CO)C926)C513)C84C%11(C(=O)NC(CO)CO)C(=O)NC(CO)CO` (stereo not drawn) [C60-ser, C60-serinol], the “γH2AX foci vs control” value (100 μM 2 hours before 0.5 Gy proton radiation) was “trend towards reduction in total foci formed, but it was not statistically significant”, the “γH2AX foci vs control” value (100 μM 2 hours before 1 Gy proton radiation) was “significant decrease in the number of foci” and the “γH2AX foci vs control” value (100 μM 2 hours, absence of radiation) was “no significant different in foci expression”.
